{
  "source": "patent US20140314904A1",
  "about": "“PRE-SLAUGHTER DIET INCLUDING METHIONINE” (ADISSEO FRANCE S.A.S., priority 2011, published 2014)",
  "assay_type_in_all_cases": "in vivo, pig",
  "key": {"slaughter pigs [1]": {"test_system": "slaughter pigs", "assay": "Instrumental meat colour (CIE L*a*b*), Example 1", "conditions": "LS mean ± SEM"}, "slaughter pigs [2]": {"test_system": "slaughter pigs", "assay": "Instrumental meat colour (CIE L*a*b*), Example 1", "conditions": "LS mean ± SEM", "description": "(§1) Twenty-one slaughter pigs ([Yorkshire×Swedish Landrace]×Hampshire) were raised on a commercial diet. Pigs were randomly assigned to one of three groups (n=7). The groups represented three feeding strategies, namely a Control group which received a standardized diet comprising 0.27% total methionine, and both a DLM and HMTBA group, receiving the same diet as the Control group throughout the feeding period, apart from the fact that they were fed a higher level of methionine (1.1% total methionine) during a seven day finishing period immediately prior to slaughter. The supplements were given in two forms, either as D L-methionine (DLM) or DL-2-hydroxy-4-methylthiobutanoic acid (HMTBA).\n(§2) Pork chops were cut perpendicular to the long axis of each LD muscle. Six 3 cm thick pork chops was sliced from each LD. Three were vacuum packed and three were packed in a high-oxygen modified atmosphere. The chops were placed in plastic trays (M71-43A white/PS; 195×144×43 mm in dimension; Frch Plast, Denmark) and placed in vacuum bags (EM-628862; O2 transmission rate=40-50 cm^3/m^2/24 h/bar, CO2 transmission rate=150 cm^3/m^2/24 h/bar, water-vapour transmission rate=2.6 g/m^2/24 h; LogiCon Nordic A/S, Denmark). The ambient air was removed from all vacuum bags using a vacuum machine (type, manufacturer, country). The bags intended for […] were first filled with a gas mixture (80% oxygen/20% carbon dioxide) before being sealed completely, whereas the bags intended for MAP were only partially sealed. […] (until 9 days post mortem). The gas composition was checked (CheckMate 9900, PBI Dansensor, Denmark) before packaging and again prior to opening, at the end of the simulated display period in order to check for leakage. The oxygen-enriched environment was well maintained (83.4%) throughout the display period for all MA packages.\nInstrumental meat colour was measured with a Minolta Chroma Meter (CR-300; D65 and 2° observer angle, 8 mm diameter measuring area; Minolta, Japan). Before packaging, as described previously, colour recordings of the pork chops was carried out. At the end of the display period, the pork chops were allowed to bloom for at least 30 min at 4±2° C. once they had been removed from the vacuum bags. Colour measurements followed the CIE colour convention, where the three fundamental outputs are L*, a* and b*. L* is lightness on a scale of 0 (all light absorbed; black) to 100 (all light reflected; white); a* spans from +60 (red) to −60 (green) and b* spans from +60 (yellow) to −60 (blue). The saturation index, also known as chroma, was calculated as the square root of a*^2+b*^2 (MacDougall, 1977). Three recordings were made on each pork chop, and the mean value was used for statistical analysis.", "remark": "listed apart in the source"}, "pigs [3]": {"test_system": "pigs", "assay": "Shear force (maximum load) after storage, Example 2", "conditions": "9 days post mortem, P < 0.02", "description": "(§3) The pigs were slaughtered at a commercial slaughter house in Sweden after a resting time of 5 h. At 45 minutes post mortem, pH (Knick portamess 751) and temperature (digital thermometer, Weber) were measured in the M. longissiumus dorsi at the level of the 10th rib. At 48 h post mortem, the entire loins were dissected from the carcasses and transported to the University of Copenhagen for further measurements. Ultimate pH was measured, as well as colour by Minolta L*a*b*. Dry matter content was determined by drying muscle samples at 105° C. for 24 h. Slices of 3 cm thickness were cut, measured and vacuum packed before being stored for a further 7 days at 2° C. At the end of the storage period samples were heated to an internal temperature of 75° C. After being cooled down, samples were stored cold at 2° C. until they were cut into slabs of 1 cm×1 cm×2.5 cm size for shear force measurement. For each animal, 8 specimens were measured and the mean maximum load was used for further analysis."}, "pigs [4]": {"test_system": "pigs", "assay": "Dry matter content of muscle samples, Example 2", "conditions": "Laboratory, 2 days post mortem", "description": "as §3"}, "slaughter pigs [5]": {"test_system": "slaughter pigs", "assay": "Storage loss of pork chops after display period", "conditions": "7 days at 2° C., 1.1% total methionine for 7 days before slaughter, LS mean ± SEM", "description": "as §1\nPigs were slaughtered at a commercial slaughter house in Sweden after a resting time of 5 hours. At 45 minutes post mortem, pH (Knick portamess 751 pH-meter with an Ingold LOT glass electrode, Tech Instrumentering ApS, Denmark) and temperature (digital thermometer, Weber, Stephen Nordic, Denmark) were measured in the m. Longissimus dorsi (LD) at the level of the 10th rib. At 48 hours post mortem, the entire back was dissected from the carcass and transported under controlled conditions to the University of Copenhagen for further measurements.\nas §2\nStorage loss was determined as the weight loss percentage at the end of the display period (9 days post mortem) relative to the weight at the day of packaging (two days post mortem). The cooking loss was determined as the weight loss percentage between the pork chops before and after cooking. The results are given as the mean of the three pork chops in each meat pack."}, "[6]": {"conditions": "MAP 80% O2/20% CO2 (9 days post mortem)"}, "[7]": {"conditions": "Initial (2 days post mortem), square root of a*^2+b*^2"}},
  "data": [
    {"smiles": "CSCCC(N)C(=O)O", "note": "(racemic) [DLM, DL-methionine]", "values": [
      {"measurement": "Light reflection (L*)", "setting": "slaughter pigs [1]; [6]", "result": "59.19 ± 1.30 ^A"},
      {"measurement": "Light reflection (L*)", "setting": "slaughter pigs [1]; Vacuum (9 days post mortem)", "result": "57.83 ± 1.25 ^A, B"},
      {"measurement": "Redness (a*)", "setting": "slaughter pigs [1]; Vacuum (9 days post mortem)", "result": "8.21 ± 0.58 ^A, B"},
      {"measurement": "Saturation index", "setting": "slaughter pigs [1]; Vacuum (9 days post mortem)", "result": "11.55 ± 0.67 ^A, B, C"},
      {"measurement": "Yellowness (b*)", "setting": "slaughter pigs [1]; Vacuum (9 days post mortem)", "result": "8.11 ± 0.46 ^A, B"},
      {"measurement": "Light reflection (L*)", "setting": "slaughter pigs [2]; Initial (2 days post mortem)", "result": "55.75 ± 1.25 ^B"},
      {"measurement": "Redness (a*)", "setting": "slaughter pigs [2]; Initial (2 days post mortem)", "result": "6.69 ± 0.58 ^C, D"},
      {"measurement": "Yellowness (b*)", "setting": "slaughter pigs [2]; Initial (2 days post mortem)", "result": "2.92 ± 0.46 ^C"},
      {"measurement": "Saturation index", "setting": "slaughter pigs [2]; [7]", "result": "7.33 ± 0.67 ^E"},
      {"measurement": "Redness (a*)", "setting": "slaughter pigs [2]; [6]", "result": "7.83 ± 0.59 ^A, B, C, D"},
      {"measurement": "Saturation index", "setting": "slaughter pigs [2]; [6]", "result": "10.55 ± 0.69 ^A, B, C, D"},
      {"measurement": "Yellowness (b*)", "setting": "slaughter pigs [2]; [6]", "result": "7.10 ± 0.49 ^A, B"},
      {"measurement": "Maximum Load", "setting": "pigs [3]", "result": 34, "unit": "N"},
      {"measurement": "Dry Matter", "setting": "pigs [4]", "result": 26, "unit": "%"},
      {"measurement": "Storage loss", "setting": "slaughter pigs [5]; MAP (80% O2 + 20% CO2)", "result": "9.34 ± 0.83 ^A g"},
      {"measurement": "Storage loss", "setting": "slaughter pigs [5]; Vacuum", "result": "4.56 ± 0.89 ^B g"}
    ]},
    {"smiles": "CSCCC(O)C(=O)O", "note": "(racemic) [HMTBA, 2-hydroxy-4-(methylthio) butanoic acid]", "values": [
      {"measurement": "Light reflection (L*)", "setting": "slaughter pigs [1]; [6]", "result": "58.73 ± 1.30 ^A, B"},
      {"measurement": "Light reflection (L*)", "setting": "slaughter pigs [1]; Vacuum (9 days post mortem)", "result": "55.34 ± 1.25 ^A, B"},
      {"measurement": "Redness (a*)", "setting": "slaughter pigs [1]; Vacuum (9 days post mortem)", "result": "8.86 ± 0.58 ^A, C"},
      {"measurement": "Saturation index", "setting": "slaughter pigs [1]; Vacuum (9 days post mortem)", "result": "12.22 ± 0.67 ^A"},
      {"measurement": "Yellowness (b*)", "setting": "slaughter pigs [1]; Vacuum (9 days post mortem)", "result": "8.39 ± 0.46 ^A"},
      {"measurement": "Light reflection (L*)", "setting": "slaughter pigs [2]; Initial (2 days post mortem)", "result": "56.89 ± 1.25 ^A, B"},
      {"measurement": "Redness (a*)", "setting": "slaughter pigs [2]; Initial (2 days post mortem)", "result": "7.58 ± 0.58 ^B, D"},
      {"measurement": "Yellowness (b*)", "setting": "slaughter pigs [2]; Initial (2 days post mortem)", "result": "3.71 ± 0.46 ^C"},
      {"measurement": "Saturation index", "setting": "slaughter pigs [2]; [7]", "result": "8.46 ± 0.67 ^C, D, E"},
      {"measurement": "Redness (a*)", "setting": "slaughter pigs [2]; [6]", "result": "7.43 ± 0.59 ^B, D"},
      {"measurement": "Saturation index", "setting": "slaughter pigs [2]; [6]", "result": "9.81 ± 0.69 ^B, C, D, E"},
      {"measurement": "Yellowness (b*)", "setting": "slaughter pigs [2]; [6]", "result": "6.35 ± 0.49 ^B"},
      {"measurement": "Maximum Load", "setting": "pigs [3]", "result": 37, "unit": "N"},
      {"measurement": "Dry Matter", "setting": "pigs [4]", "result": 29, "unit": "%"},
      {"measurement": "Storage loss", "setting": "slaughter pigs [5]; MAP (80% O2 + 20% CO2)", "result": "6.37 ± 0.83 ^A, B g"},
      {"measurement": "Storage loss", "setting": "slaughter pigs [5]; Vacuum", "result": "4.63 ± 0.83 ^B g"}
    ]}
  ]
}
